Converted amounts (≈) assume the structure as drawn.
Tests used:
[1] = test system: SARS-CoV-2 (COVID-19 disease); assay: Treatment of SARS-CoV-2 positive patients with oral Nystatin tablets
SARS-CoV = conditions: cited from earlier work
VERO E6 cell line = conditions: Tables 1, 2 and FIGS. 3A, 3B
[2] = test system: SARS-CoV-2 early Wuhan strain (CMC-1); assay: microbe, parasite or virus in culture; assay type: cell-based

With `C[C@@H]1[C@H](O)[C@@H](C)/C=C/C=C/CC/C=C/C=C/C=C/C=C/[C@H](OC2O[C@@H](C)[C@H](O)[C@@H](N)[C@H]2O)C[C@@H]2OC(O)(C[C@@H](O)[C@H](O)CC[C@@H](O)C[C@@H](O)C[C@@H](O)CC(=O)O[C@H]1C)C[C@H](O)[C@H]2C(=O)O` (some centres unmarked) [Nystatin, nystatin] the “course of complaints under treatment” value ([1]; Patient 1, 3×2 Nystatin tablets (500,000 IU) per day for 10 days) was “complaints steadily decreased and disappeared after 10 days”, the “course of complaints under treatment” value ([1]; Patient 2, 3×2 Nystatin tablets (500,000 IU) per day for 15 days) was “free of complaints” and the “course of complaints under treatment” value ([1]; Patient 3, 3×2 Nystatin tablets (500,000 IU) per day for 15 days) was “free of complaints”. It also gave a body temperature ([1]; Patient 4, 9 Apr. 2021 (day 9), one day after start of Nystatin, before 39-39.8° C.) of 37.5 °C, a body temperature ([1]; Patient 4, 10 Apr. 2021 (day 10)) of 36.9 °C and a body temperature ([1]; Patient 4, 11 Apr. 2021 (day 11)) of 36.3 °C. The state after treatment ([1]; Patient 4, Nystatin from 8 Apr. 2021, 3×2 tablets daily, state on 14 Apr. 2021) was ““post-covid” asymptomatic state”, the “effectiveness against SARS-CoV in vivo” value (SARS-CoV) was “not proved to be effective” and the “toxicity of nystatin itself to the cultured cells” value (VERO E6 cell line) was “toxic to the cultured cells”. For the same compound, the “microscopic image of tissue culture at the end of the incubation period” value ([2]; CMC-1 virus treated with 60 μg/ml nystatin, FIG. 4C) was “both cells with lysed and intact morphology can be seen” and the IC50 ([2]; Severe acute respiratory syndrome coronavirus 2, Vero C1008) was 60 µg/mL (≈ 64.8 µM).

— patent publication US20240207297A1 (priority 2021, published 2024)
